Laboratory results reported in ChEMBL document CHEMBL5518181, “Studies of antibacterial activity (in vitro and in vivo) and mode of action for des-acyl tridecaptins (DATs)” (Eur J Med Chem, 2024).
Values after ≈ are worked out from the molar mass of the structure shown. Active and inactive are the calls of the source. No cut-off for these calls is given here.

Legend:
Klebsiella pneumoniae [1] = test: Antibacterial activity against wild-type Klebsiella pneumoniae ATCC 13883 assessed as inhibition of bacterial growth incubated for 18 hrs; assay type: functional; details: read-out: MIC100
[2] = Hemolytic activity in human red blood cells at 400 ug/ml incubated for 45 mins by spectrophotometric analysis relative to control; assay type: toxicity, cell-based, Erythrocyte; details: red blood cells (erythrocytes), at 400 µg/mL, read-out: Activity
[3] = Cytotoxicity against human HepG2 cells incubated for 40 hrs by celltiter-glo luminescent cell viability assay; assay type: toxicity, cell-based
Escherichia coli [4] = test: Antibacterial activity against wild-type Escherichia coli ATCC 25922 assessed as inhibition of bacterial growth by measuring fold increase in MIC incubated for 18 hrs in presence of 50% heat inactivated human serum relative to control; assay type: functional
Escherichia coli [5] = test: Antibacterial activity against Escherichia coli ATCC 25922 harboring hldE knock-out assessed as inhibition of bacterial growth incubated for 18 hrs; assay type: functional; details: read-out: MIC100
[6] = Lipophilicity, logD of compound at pH 7.4; assay type: physicochemical; details: buffer
[7] = Aqueous solubility of compound at pH 4.6; assay type: physicochemical
Cytochrome P450 2B6 = molecular target: T1, Cytochrome P450 2B6 (Homo sapiens, UniProt P20813); test: Inhibition of CYP2B6 (unknown origin); assay type: ADME
T1 sequence (P20813 whole entry): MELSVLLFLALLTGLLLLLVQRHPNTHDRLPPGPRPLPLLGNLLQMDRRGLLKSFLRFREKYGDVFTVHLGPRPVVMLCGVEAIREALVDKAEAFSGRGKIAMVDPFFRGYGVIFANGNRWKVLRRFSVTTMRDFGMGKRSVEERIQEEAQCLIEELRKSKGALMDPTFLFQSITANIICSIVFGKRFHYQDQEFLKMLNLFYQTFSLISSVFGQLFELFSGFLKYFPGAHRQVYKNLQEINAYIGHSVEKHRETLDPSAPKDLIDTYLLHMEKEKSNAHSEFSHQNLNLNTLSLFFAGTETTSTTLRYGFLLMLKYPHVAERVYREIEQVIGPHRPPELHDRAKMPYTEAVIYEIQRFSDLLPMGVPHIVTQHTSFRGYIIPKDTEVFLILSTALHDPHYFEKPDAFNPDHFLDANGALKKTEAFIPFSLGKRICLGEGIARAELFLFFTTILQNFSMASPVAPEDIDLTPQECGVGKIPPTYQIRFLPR

[8] = AUClast in Swiss mouse liver at 10 mg/kg, iv administered as single bolus dose and measured upto 24 hrs by LC-MS/MS analysis; assay type: ADME, organism-based
[9] = Volume of distribution at steady state in Swiss mouse at 10 mg/kg, iv administered as single bolus dose and measured upto 24 hrs by LC-MS/MS analysis; assay type: ADME, organism-based; details: in vivo, read-out: Vdss
Klebsiella pneumoniae [10] = test: Antibacterial activity against Klebsiella pneumoniae ATCC 43816 assessed as inhibition of bacterial growth incubated for 18 hrs; assay type: functional; details: read-out: MIC100
Klebsiella aerogenes = test: Antibacterial activity against Enterobacter aerogenes ATCC 13048 assessed as inhibition of bacterial growth incubated for 18 hrs; assay type: functional; details: read-out: MIC100
Morganella morganii = test: Antibacterial activity against Morganella morganii ATCC 25830 assessed as inhibition of bacterial growth incubated for 18 hrs; assay type: functional; details: read-out: MIC100
Serratia marcescens = test: Antibacterial activity against intrinsically colistin resistant Serratia marcescens ATCC 13880 assessed as inhibition of bacterial growth incubated for 18 hrs; assay type: functional; details: read-out: MIC100
Escherichia coli [11] = test: Antibacterial activity against Escherichia coli ATCC 25922 assessed as inhibition of bacterial growth incubated for 18 hrs in presence of 150 mM NaCl; assay type: functional, organism-based
Escherichia coli [12] = test: Antibacterial activity against Escherichia coli ATCC 25922 assessed as inhibition of bacterial growth incubated for 18 hrs in presence of 5 mM KCl; assay type: functional, organism-based
Lipopolysaccharide (LPS) = test: Binding affinity to Pseudomonas aeruginosa LPS assessed as dissociation constant by ITC analysis; assay type: subcellular
Escherichia coli [13] = test: Antibacterial activity against Escherichia coli ATCC 35218 infected in Swiss albino mouse septicemia model at 10 to 30 mg/kg, iv administered twice every 2 hrs and measured after 5 hrs; assay type: functional, organism-based; details: dose 10-30 mg/kg
Escherichia coli [14] = test: Antibacterial activity against Escherichia coli ATCC 35218 infected in Swiss albino mouse septicemia model assessed as log10 reduction in bacterial burden below stasis in blood at 20 mg/kg, iv administered twice every 2 hrs and measured after 5 hrs; assay type: functional
Klebsiella pneumoniae [15] = test: Antibacterial activity against Klebsiella pneumoniae ATCC 43816 infected in mouse urinary tract infection model assessed as reduction in bacterial burden in bladder at <10 mg/kg, iv administered every 4 hrs and measured after 26 hrs; assay type: functional, organism-based
Klebsiella pneumoniae [16] = test: Antibacterial activity against Klebsiella pneumoniae ATCC 43816 infected in mouse urinary tract infection model assessed as reduction in bacterial burden in kidney at <10 mg/kg, iv administered every 4 hrs and measured after 26 hrs; assay type: functional, organism-based

`CC[C@H](C)[C@@H](NC(=O)[C@@H](NC(=O)[C@H](CCC(=O)O)NC(=O)[C@H](Cc1ccccc1)NC(=O)[C@@H](CCN)NC(=O)[C@H](CCN)NC(=O)[C@H](CO)NC(=O)[C@@H](Cc1c[nH]c2ccccc12)NC(=O)[C@@H](CO)NC(=O)CNC(=O)[C@@H](CCN)NC(=O)[C@H](NC(=O)[C@H](C)N)C(C)C)C(C)C)C(=O)N[C@@H](C)C(=O)O` showed an MIC (Klebsiella pneumoniae [1]) of 4 mg/L (≈ 2.73 µM), a hemolysis at 0.75 h, 400 ug/ml [2] of 9.1% and an IC50 at 40 h [3] of over 170 mg/L. The “fold change (FC)” value (Escherichia coli [4]) was 2, the MIC (Escherichia coli [5]) was 4 mg/L (≈ 2.73 µM) and the logD [6] was 1.36. The solubility [7] was over 1 mg/mL, the “inhibition (INH)” value (Cytochrome P450 2B6) was “Not Active” and the AUC(0-t) at 24 h [8] was 3.02 µg·h/mL. For the same compound, the Vd [9] was 0.1 L/kg, the MIC (Klebsiella pneumoniae [10]) was 8 mg/L (≈ 5.46 µM) and the MIC (Klebsiella aerogenes) was 8 mg/L (≈ 5.46 µM). For the same compound, the MIC (Morganella morganii) was over 32 mg/L, the MIC (Serratia marcescens) was 8 mg/L (≈ 5.46 µM) and the Activity (Escherichia coli [11]) was “Active”. The Activity (Escherichia coli [12]) was “Active”, the Kd (Lipopolysaccharide (LPS)) was 42.8 µM and the Activity (Escherichia coli [13]) was “Active”. For the same compound, the “log(activity)” value (Escherichia coli [14]) was about 2, the Activity (Klebsiella pneumoniae [15]) was “Active” and the Activity (Klebsiella pneumoniae [16]) was “Active”.
